Results on 10 molecules are retold here after PMC10967448 (Antibiotics, 2024).

What is called MBC is the smallest concentration meeting the test's criterion for killing. Low values mean greater bactericidal potency, high ones weaker bactericidal potency. As a reminder, the Kd is the free concentration of one partner at which half of the binding sites on the other are occupied at equilibrium, for simple one-to-one binding.

The subject of assay [1] is M. smegmatis.
Assay [2] has as its target ClpC (Mycolicibacterium smegmatis, UniProt A0R574). Kind of assay: biochemical. The assay is classed as binding, Mycobacterium smegmatis.
Excerpt: (§1) All the binding data were double-referenced by blank cycle and reference flow cell subtraction. The resulting data fit a 1:1 Langmuir binding model using Biacore Insight Evaluation Software 4.0 (GE Healthcare).
In assay [3] the test system is M. smegmatis. This is another data set of the same source.
In assay [4] the target is ClpC (S437P) (Mycolicibacterium smegmatis, UniProt A0R574, S437P). The experiment in a line: biochemical. Type of assay: binding, Mycobacterium smegmatis.
Sequence of ClpC (S437P) (A0R574 whole entry S437P, looked up): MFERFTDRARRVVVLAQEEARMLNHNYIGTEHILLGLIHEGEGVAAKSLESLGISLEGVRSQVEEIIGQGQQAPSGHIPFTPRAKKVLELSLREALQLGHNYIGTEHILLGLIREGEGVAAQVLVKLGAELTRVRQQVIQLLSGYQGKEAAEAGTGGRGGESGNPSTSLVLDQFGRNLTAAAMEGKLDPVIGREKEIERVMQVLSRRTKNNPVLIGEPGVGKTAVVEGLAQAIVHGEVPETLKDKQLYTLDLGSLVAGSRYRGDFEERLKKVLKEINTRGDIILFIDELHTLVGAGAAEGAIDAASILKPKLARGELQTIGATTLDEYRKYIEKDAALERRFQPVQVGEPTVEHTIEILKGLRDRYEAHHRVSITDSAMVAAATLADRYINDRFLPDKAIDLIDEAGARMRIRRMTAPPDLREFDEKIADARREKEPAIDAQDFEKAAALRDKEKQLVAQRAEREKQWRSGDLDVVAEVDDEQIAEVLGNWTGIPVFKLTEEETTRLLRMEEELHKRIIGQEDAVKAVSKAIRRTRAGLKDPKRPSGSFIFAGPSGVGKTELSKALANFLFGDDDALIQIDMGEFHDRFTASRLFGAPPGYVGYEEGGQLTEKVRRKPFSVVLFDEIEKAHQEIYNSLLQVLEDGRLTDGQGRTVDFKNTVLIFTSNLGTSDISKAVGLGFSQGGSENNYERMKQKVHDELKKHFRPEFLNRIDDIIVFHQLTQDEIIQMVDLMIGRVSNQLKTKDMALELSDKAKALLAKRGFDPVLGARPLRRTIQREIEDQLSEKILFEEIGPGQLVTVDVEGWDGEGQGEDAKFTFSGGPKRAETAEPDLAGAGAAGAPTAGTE
Excerpt: as §1
Assay [5] relates to ClpCP1P2. Particulars: 10 μM COG1410; 1 μM ClpC, 2 μM ClpP1 and ClpP2, 100 μM ATP, 1 μM FITC-casein, 1 h, 37 °C, pH 7.5.
Assay [6] deals with pandrug-resistant Acinetobacter baumannii. The arrangement: method as in PMID 36081797. Particulars: cited from earlier work.
The mark [7] stands for this setting: […], Tables 2 and 3 print no unit (text b20 uses μg/mL), micro-dilution, 37 °C, 48 h.
[8] abbreviates: […], Tables 2 and 3 print no unit, micro-dilution, 37 °C, 48 h.
Where [9] appears, read: strain clpC (KD), Tables 2 and 3 print no unit, micro-dilution, 37 °C, 48 h.

Converted amounts (≈) assume the structure as drawn. Read-outs that look alike come from different tables or passages of the source. Square brackets hold non-standard residues; d marks the D form. Peptide text beside a SMILES is read from it. Aib = CC(C)(N)C(=O)O

Sequence of ClpC (A0R574 whole entry): as the sequence (A0R574 whole entry S437P, looked up) above, with P437S counted along it

For `CC(=O)N[C@@H](C)C(=O)N[C@@H](CO)C(=O)NC(C)(C)C(=O)N[C@@H](CC(C)C)C(=O)N[C@@H](CCCNC(=N)N)C(=O)N[C@@H](CCCCN)C(=O)N[C@@H](CC(C)C)C(=O)NC(C)(C)C(=O)N[C@@H](CCCCN)C(=O)N[C@@H](CCCNC(=N)N)C(=O)N[C@@H](CC(C)C)C(=O)N[C@@H](CC(C)C)C(N)=O` [COG1410] (Ac-AS[Aib]LRKL[Aib]KRLL-NH2), the MBC is given as >256 µg/mL in assay [1] (strain 35g/pSMT3-ClpC (S437P)); >256 µg/mL in assay [1] (strain clpC (KD), knockdown); >256 µg/mL in assay [1] (strain clpC (KD)/pSMT3-ClpC (S437P)). Besides, the Kd stood at 2030 nM in assay [2] and 1310 nM in assay [4]. Further, the kon in assay [2] (pH 7.4, read-out: association constant (ka)) was found to be 5780 M⁻¹ s⁻¹; in assay [4] (pH 7.4, read-out: ka) it was 9900 M⁻¹ s⁻¹. Further, the MIC in assay [3] (strain 35g/pSMT3-ClpC (S437P), micro-dilution, 37 °C, 48 h, triplicate) was 256 µg/mL (≈ 182 µM); in assay [3] (strain WT/pSMT3-ClpC (overexpression), micro-dilution, 37 °C, 48 h, triplicate), 16 µg/mL (≈ 11.4 µM); in assay [3] (strain clpC (KD), knockdown, micro-dilution, 37 °C, 48 h, triplicate) it was >256 µg/mL; in assay [3] (strain clpC (KD)/pSMT3-ClpC (S437P), micro-dilution, 37 °C, 48 h, triplicate), >256 µg/mL.

Turning to `NCC[C@H](O)C(=O)N[C@@H]1C[C@H](N)[C@@H](O[C@H]2O[C@H](CN)[C@@H](O)[C@H](O)[C@H]2O)[C@H](O)[C@H]1O[C@H]1O[C@H](CO)[C@@H](O)[C@H](N)[C@H]1O` [amikacin], the MIC was 0.5 in assay [3] (setting [7]), 0.5 µg/mL (≈ 0.854 µM) in assay [3] (setting [8]) and 0.5 µg/mL (≈ 0.854 µM) in assay [3] (setting [9]).

For `CC[C@H]1OC(=O)[C@H](C)[C@@H](O[C@H]2C[C@@](C)(OC)[C@@H](O)[C@H](C)O2)[C@H](C)[C@@H](O[C@@H]2O[C@H](C)C[C@H](N(C)C)[C@H]2O)[C@](C)(O)C[C@@H](C)CN(C)[C@H](C)[C@@H](O)[C@]1(C)O` [azithromycin], the MIC was 2 in assay [3] (setting [7]), 2 µg/mL (≈ 2.67 µM) in assay [3] (setting [8]) and 2 µg/mL (≈ 2.67 µM) in assay [3] (setting [9]).

Turning to `CO[C@@]1(NC(=O)Cc2cccs2)C(=O)N2C(C(=O)O)=C(COC(N)=O)CS[C@@H]21` [cefoxitin], the MIC in assay [3] (setting [7]) is 16; in assay [3] (setting [8]), 16 µg/mL (≈ 37.4 µM); in assay [3] (setting [9]) it was 16 µg/mL (≈ 37.4 µM).

Consider `CC(=O)NC[C@H]1CN(c2ccc(N3CCOCC3)c(F)c2)C(=O)O1` [linezolid], for which the MIC in assay [3] (setting [7]) turned out to be 1; in assay [3] (setting [8]) it was 1 µg/mL (≈ 2.96 µM); in assay [3] (setting [9]), 1 µg/mL (≈ 2.96 µM).

Regarding IRMRIRVLL [antiTB_1080], the MIC was 32 in assay [3] (setting [7]), 128 µg/mL in assay [3] (setting [8]) and > 256 µg/mL in assay [3] (setting [9]).

Consider LRKLRKRLVRLASHLRKLRKRLL [ApoE23], for which the MIC in assay [3] was 128 µg/mL; in assay [3] (setting [7]) it was 128; in assay [3] (setting [8]) it was > 128 µg/mL; in assay [3] (setting [9]), > 128 µg/mL. In addition, the “increase in proteolytic activity, ClpCP1P2 system” value in assay [5] is “substantial increase in proteolytic activity”.

In the case of LRVRLASHLRKLRKRLL [COG133], the anti-mycobacterial activity result in assay [3] (M. smegmatis, result in words) is on record as “did not demonstrate anti-mycobacterial activity”. The MIC is >256 in assay [3] (setting [7]), > 256 µg/mL in assay [3] (setting [8]) and > 256 µg/mL in assay [3] (setting [9]). Further, the “increase in proteolytic activity, ClpCP1P2 system” value in assay [5] is listed as “no influence on proteolytic activity”.

As for WKWLKKWIK [antiTB_1026], the values for the MIC in assay [3] (setting [7]), in assay [3] (setting [8]) and in assay [3] (setting [9]) were 32, 256 µg/mL and > 256 µg/mL, respectively.

For polymyxin B, the “fold increase of MIC after 55 passages in the presence of sub-MIC agent” value in assay [6] was 64 fold.
